Measurements taken from patent US20240116998A1, “GLUCAGON-LIKE PEPTIDE-1 RECEPTOR ANTAGONISTS” (INDIANA UNIVERSITY RESEARCH AND TECHNOLOGY CORPORATION, priority 2021, published 2024).
Values after ≈ are worked out from the molar mass of the structure shown. Non-standard residues stand in square brackets, D forms with d. Residues, ends and D or L forms follow the SMILES beside them. *: point of attachment. Palmitoyl = CCCCCCCCCCCCCCCC(=O)*; Aib = CC(C)(N)C(=O)O

Experiment: Solubility of peptides in buffer
Type: physicochemical
Details: for solubility: pH 7.4; for Solubility 80 mM AmBicarb pH 7.7: Table 3, unit not given

Row | SMILES | solubility [µg/mL] | Solubility 80 mM AmBicarb pH 7.7
1 | CCCCCCCCCCCCCCCC(=O)NCCCC[C@H](NC(=O)[C@H](CO)NC(=O)[C@@H]1CCCN1C(=O)[C@@H]1CCCN1C(=O)[C@@H]1CCCN1C(=O)[C@H](C)NC(=O)CNC(=O)[C@H](CO)NC(=O)[C@H](CO)NC(=O)[C@@H]1CCCN1C(=O)CNC(=O)CNC(=O)[C@H](CCCCN)NC(=O)C(C)(C)NC(=O)[C@H](CC(C)C)NC(=O)[C@H](Cc1c[nH]c2ccccc12)NC(=O)[C@H](C)NC(=O)[C@@H](NC(=O)[C@H](Cc1ccccc1)NC(=O)[C@H](CCC(=O)O)NC(=O)[C@H](CCCNC(=N)N)NC(=O)[C@@H](NC(=O)[C@H](C)NC(=O)[C@H](CCC(N)=O)NC(=O)[C@H](CCC(=O)O)NC(=O)[C@H](CCC(=O)O)NC(=O)[C@H](CC(C)C)NC(=O)[C@H](Cc1ccc(O)cc1)NC(=O)[C@H](CO)NC(=O)[C@H](CO)NC(=O)[C@@H](NC(=O)[C@@H](N)CC(=O)O)C(C)C)C(C)C)[C@@H](C)CC)C(N)=O [SEQ ID NO: 81] (H-DVSSYLEEQAVREFIAWL[Aib]KGGPSSGAPPPSK(Palmitoyl)-NH2; N-terminus assumed) | 1600 (≈ 441 µM) | –
2 | CCCCCCCCCCCCCCCC(=O)NCCCC[C@H](NC(=O)[C@H](CO)NC(=O)[C@@H]1CCCN1C(=O)[C@@H]1CCCN1C(=O)[C@@H]1CCCN1C(=O)[C@H](C)NC(=O)CNC(=O)[C@H](CO)NC(=O)[C@H](CO)NC(=O)[C@@H]1CCCN1C(=O)CNC(=O)CNC(=O)C(C)(C)NC(=O)[C@H](CCCCN)NC(=O)[C@H](CC(C)C)NC(=O)[C@H](Cc1c[nH]c2ccccc12)NC(=O)[C@H](C)NC(=O)[C@@H](NC(=O)[C@H](Cc1ccccc1)NC(=O)[C@H](CCC(=O)O)NC(=O)[C@H](CCCNC(=N)N)NC(=O)[C@@H](NC(=O)[C@H](C)NC(=O)[C@H](CCC(N)=O)NC(=O)[C@H](CCC(=O)O)NC(=O)[C@H](CCC(=O)O)NC(=O)[C@H](CC(C)C)NC(=O)[C@H](Cc1ccc(O)cc1)NC(=O)[C@H](CO)NC(=O)[C@H](CO)NC(=O)[C@@H](NC(=O)[C@@H](N)CC(=O)O)C(C)C)C(C)C)[C@@H](C)CC)C(N)=O [SEQ ID NO: 43] | 200 (≈ 55.2 µM) | –
3 | CCCCCCCCCCCCCCCC(=O)NCCCC[C@H](NC(=O)[C@H](CO)NC(=O)[C@@H]1CCCN1C(=O)[C@@H]1CCCN1C(=O)[C@@H]1CCCN1C(=O)[C@H](C)NC(=O)CNC(=O)[C@H](CO)NC(=O)[C@H](CO)NC(=O)[C@@H]1CCCN1C(=O)CNC(=O)CNC(=O)[C@H](CCCCN)NC(=O)[C@@H](NC(=O)[C@H](CC(C)C)NC(=O)[C@H](Cc1c[nH]c2ccccc12)NC(=O)C(C)(C)NC(=O)[C@@H](NC(=O)[C@H](Cc1ccccc1)NC(=O)[C@H](CCC(=O)O)NC(=O)[C@H](CCCNC(=N)N)NC(=O)[C@@H](NC(=O)[C@H](C)NC(=O)[C@H](CCC(N)=O)NC(=O)[C@H](CCC(=O)O)NC(=O)[C@H](CCC(=O)O)NC(=O)[C@H](CC(C)C)NC(=O)[C@H](Cc1ccc(O)cc1)NC(=O)[C@H](CO)NC(=O)[C@H](CO)NC(=O)[C@@H](NC(=O)[C@@H](N)CC(=O)O)C(C)C)C(C)C)[C@@H](C)CC)C(C)C)C(N)=O [SEQ ID NO: 83] (H-DVSSYLEEQAVREFI[Aib]WLVKGGPSSGAPPPSK(Palmitoyl)-NH2; N-terminus assumed) | 300 (≈ 82.1 µM) | –
4 | CCCCCCCCCCCCCCCC(=O)NCCCC[C@H](NC(=O)[C@H](CO)NC(=O)[C@@H]1CCCN1C(=O)[C@@H]1CCCN1C(=O)[C@@H]1CCCN1C(=O)[C@H](C)NC(=O)CNC(=O)[C@H](CO)NC(=O)[C@H](CO)NC(=O)[C@@H]1CCCN1C(=O)CNC(=O)CNC(=O)[C@H](CCCCN)NC(=O)[C@@H](NC(=O)[C@H](CC(C)C)NC(=O)[C@H](Cc1c[nH]c2ccccc12)NC(=O)[C@H](C)NC(=O)[C@@H](NC(=O)[C@H](Cc1ccccc1)NC(=O)[C@H](CCC(=O)O)NC(=O)[C@H](CCCNC(=N)N)NC(=O)[C@@H](NC(=O)[C@H](C)NC(=O)[C@H](CCC(N)=O)NC(=O)C(C)(C)NC(=O)[C@H](CCC(=O)O)NC(=O)[C@H](CC(C)C)NC(=O)[C@H](Cc1ccc(O)cc1)NC(=O)[C@H](CO)NC(=O)[C@H](CO)NC(=O)[C@@H](NC(=O)[C@@H](N)CC(=O)O)C(C)C)C(C)C)[C@@H](C)CC)C(C)C)C(N)=O [SEQ ID NO: 84] (H-DVSSYLE[Aib]QAVREFIAWLVKGGPSSGAPPPSK(Palmitoyl)-NH2; N-terminus assumed) | 200 (≈ 55.6 µM) | –
5 | CCCCCCCCCCCCCCCC(=O)NCCCC[C@H](NC(=O)[C@H](CO)NC(=O)[C@@H]1CCCN1C(=O)[C@@H]1CCCN1C(=O)[C@@H]1CCCN1C(=O)[C@H](C)NC(=O)CNC(=O)[C@H](CO)NC(=O)[C@H](CO)NC(=O)[C@@H]1CCCN1C(=O)CNC(=O)CNC(=O)C(C)(C)NC(=O)[C@@H](NC(=O)[C@H](CCCCN)NC(=O)[C@H](Cc1c[nH]c2ccccc12)NC(=O)[C@H](C)NC(=O)[C@@H](NC(=O)[C@H](Cc1ccccc1)NC(=O)[C@H](CCC(=O)O)NC(=O)[C@H](CCCNC(=N)N)NC(=O)[C@@H](NC(=O)[C@H](C)NC(=O)[C@H](CCC(N)=O)NC(=O)[C@H](CCC(=O)O)NC(=O)[C@H](CCC(=O)O)NC(=O)[C@H](CC(C)C)NC(=O)[C@H](Cc1ccc(O)cc1)NC(=O)[C@H](CO)NC(=O)[C@H](CO)NC(=O)[C@@H](NC(=O)[C@@H](N)CC(=O)O)C(C)C)C(C)C)[C@@H](C)CC)C(C)C)C(N)=O [SEQ ID NO: 82] | 100 (≈ 27.7 µM) | –
6 | CCCCCCCCCCCCCCCC(=O)NCCCC[C@H](NC(=O)[C@H](CO)NC(=O)[C@@H]1CCCN1C(=O)[C@@H]1CCCN1C(=O)[C@@H]1CCCN1C(=O)[C@H](C)NC(=O)CNC(=O)[C@H](CO)NC(=O)[C@H](CO)NC(=O)[C@@H]1CCCN1C(=O)CNC(=O)CNC(=O)[C@H](CCCCN)NC(=O)[C@@H](NC(=O)[C@H](CC(C)C)NC(=O)[C@H](Cc1c[nH]c2ccccc12)NC(=O)[C@H](C)NC(=O)[C@@H](NC(=O)[C@H](Cc1ccccc1)NC(=O)[C@H](CCC(=O)O)NC(=O)[C@H](CCCNC(=N)N)NC(=O)[C@@H](NC(=O)C(C)(C)NC(=O)[C@H](CCC(N)=O)NC(=O)[C@H](CCC(=O)O)NC(=O)[C@H](CCC(=O)O)NC(=O)[C@H](CC(C)C)NC(=O)[C@H](Cc1ccc(O)cc1)NC(=O)[C@H](CO)NC(=O)[C@H](CO)NC(=O)[C@@H](NC(=O)[C@@H](N)CC(=O)O)C(C)C)C(C)C)[C@@H](C)CC)C(C)C)C(N)=O [SEQ ID NO: 46] (H-DVSSYLEEQ[Aib]VREFIAWLVKGGPSSGAPPPSK(Palmitoyl)-NH2; N-terminus assumed) | 700 (≈ 192 µM) | –
7 | CCCCCCCCCCCCCCCC(=O)NCCCC[C@H](NC(=O)[C@H](CO)NC(=O)[C@@H]1CCCN1C(=O)[C@@H]1CCCN1C(=O)[C@@H]1CCCN1C(=O)[C@H](C)NC(=O)CNC(=O)[C@H](CO)NC(=O)[C@H](CO)NC(=O)[C@@H]1CCCN1C(=O)CNC(=O)CNC(=O)[C@H](CCCCN)NC(=O)[C@@H](NC(=O)C(C)(C)NC(=O)[C@H](Cc1c[nH]c2ccccc12)NC(=O)[C@H](C)NC(=O)[C@@H](NC(=O)[C@H](Cc1ccccc1)NC(=O)[C@H](CCC(=O)O)NC(=O)[C@H](CCCNC(=N)N)NC(=O)[C@@H](NC(=O)[C@H](C)NC(=O)[C@H](CCC(N)=O)NC(=O)[C@H](CCC(=O)O)NC(=O)[C@H](CCC(=O)O)NC(=O)[C@H](CC(C)C)NC(=O)[C@H](Cc1ccc(O)cc1)NC(=O)[C@H](CO)NC(=O)[C@H](CO)NC(=O)[C@@H](NC(=O)[C@@H](N)CC(=O)O)C(C)C)C(C)C)[C@@H](C)CC)C(C)C)C(N)=O [SEQ ID NO: 44] (H-DVSSYLEEQAVREFIAW[Aib]VKGGPSSGAPPPSK(Palmitoyl)-NH2; N-terminus assumed) | 100 (≈ 27.7 µM) | –
8 | CCCCCCCCCCCCCCCC(=O)NCCCC[C@H](NC(=O)[C@H](CO)NC(=O)[C@@H]1CCCN1C(=O)[C@@H]1CCCN1C(=O)[C@@H]1CCCN1C(=O)[C@H](C)NC(=O)CNC(=O)[C@H](CO)NC(=O)[C@H](CO)NC(=O)[C@@H]1CCCN1C(=O)CNC(=O)CNC(=O)[C@H](CCCCN)NC(=O)[C@@H](NC(=O)[C@H](CC(C)C)NC(=O)[C@H](Cc1c[nH]c2ccccc12)NC(=O)[C@H](C)NC(=O)[C@@H](NC(=O)[C@H](Cc1ccccc1)NC(=O)[C@H](CCC(=O)O)NC(=O)[C@H](CCCNC(=N)N)NC(=O)C(C)(C)NC(=O)[C@H](C)NC(=O)[C@H](CCC(N)=O)NC(=O)[C@H](CCC(=O)O)NC(=O)[C@H](CCC(=O)O)NC(=O)[C@H](CC(C)C)NC(=O)[C@H](Cc1ccc(O)cc1)NC(=O)[C@H](CO)NC(=O)[C@H](CO)NC(=O)[C@@H](NC(=O)[C@@H](N)CC(=O)O)C(C)C)[C@@H](C)CC)C(C)C)C(N)=O [SEQ ID NO: 45] (H-DVSSYLEEQA[Aib]REFIAWLVKGGPSSGAPPPSK(Palmitoyl)-NH2; N-terminus assumed) | 400 (≈ 110 µM) | –
9 | CCCCCCCCCCCCCCCC(=O)NCCCC[C@H](NC(=O)[C@H](CO)NC(=O)[C@@H]1CCCN1C(=O)[C@@H]1CCCN1C(=O)[C@@H]1CCCN1C(=O)[C@H](C)NC(=O)CNC(=O)[C@H](CO)NC(=O)[C@H](CO)NC(=O)[C@@H]1CCCN1C(=O)CNC(=O)CNC(=O)[C@H](CCCNC(=N)N)NC(=O)[C@@H](NC(=O)[C@H](CC(C)C)NC(=O)[C@H](Cc1c[nH]c2ccccc12)NC(=O)[C@H](CCC(=O)O)NC(=O)[C@@H](NC(=O)[C@H](Cc1ccccc1)NC(=O)[C@H](CCC(=O)O)NC(=O)[C@H](CCCNC(=N)N)NC(=O)[C@@H](NC(=O)[C@H](C)NC(=O)[C@H](CCC(=O)O)NC(=O)[C@H](CCC(=O)O)NC(=O)[C@H](CCC(=O)O)NC(=O)[C@H](CC(C)C)NC(=O)[C@H](Cc1ccc(O)cc1)NC(=O)[C@H](CCCNC(=N)N)NC(=O)[C@H](CO)NC(=O)[C@@H](NC(=O)[C@@H](N)CC(=O)O)C(C)C)C(C)C)[C@@H](C)CC)C(C)C)C(N)=O [SEQ ID NO: 75] (H-DVSRYLEEEAVREFIEWLVRGGPSSGAPPPSK(Palmitoyl)-NH2) | – | 18.5
10 | CCCCCCCCCCCCCCCC(=O)NCCCC[C@H](NC(=O)[C@H](CO)NC(=O)[C@@H]1CCCN1C(=O)[C@@H]1CCCN1C(=O)[C@@H]1CCCN1C(=O)[C@H](C)NC(=O)CNC(=O)[C@H](CO)NC(=O)[C@H](CO)NC(=O)[C@@H]1CCCN1C(=O)CNC(=O)CNC(=O)[C@H](CCCNC(=N)N)NC(=O)[C@@H](NC(=O)[C@H](CC(C)C)NC(=O)[C@H](Cc1c[nH]c2ccccc12)NC(=O)[C@H](C)NC(=O)[C@@H](NC(=O)[C@H](Cc1ccccc1)NC(=O)[C@H](CCC(=O)O)NC(=O)[C@H](CCCNC(=N)N)NC(=O)[C@@H](NC(=O)[C@H](C)NC(=O)[C@H](CCC(=O)O)NC(=O)[C@H](CCC(=O)O)NC(=O)[C@H](CCC(=O)O)NC(=O)[C@H](CC(C)C)NC(=O)[C@H](Cc1ccc(O)cc1)NC(=O)[C@H](CO)NC(=O)[C@H](CO)NC(=O)[C@@H](NC(=O)[C@@H](N)CC(=O)O)C(C)C)C(C)C)[C@@H](C)CC)C(C)C)C(N)=O [SEQ ID NO: 71] (H-DVSSYLEEEAVREFIAWLVRGGPSSGAPPPSK(Palmitoyl)-NH2; N-terminus assumed) | – | >20
